The record followed here is patent US10633419B2, “Immunomodulators” (BRISTOL-MYERS SQUIBB COMPANY, priority 2014, dated 2020).

As usually defined, the IC50 is the concentration that gives 50% inhibition.

Starred links: 1 amine or outer side, 2 acyl side, 3 side chain; linkers in the order of their positions; H or OH if unused. Positions of bridges follow the written chain, without caps; N, C: chain ends. Non-standard residues stand in square brackets, D forms with d. Residues, ends and D or L forms follow the SMILES beside them. *: point of attachment. X6 = O=C(O)CCCCCCCCCCCCCCCCC(=O)N[C@@H](CCC(=O)NCCCOCCOCCOCCCN*)C(=O)O; Trp(1-CH2COOH) = N[C@@H](Cc1cn(CC(=O)O)c2ccccc12)C(=O)O; X26 = O=C(O)Cn1cc(CC(N[*:1])C(=O)[*:2])c2ccccc21; NH(CH2)16COOH = O=C(O)CCCCCCCCCCCCCCCCN*; NH(CH2)14COOH = O=C(O)CCCCCCCCCCCCCCN*; d(cisHyp) = O=C(O)[C@H]1C[C@@H](O)CN1; Palmitoyl = CCCCCCCCCCCCCCCC(=O)*; Hyp = O=C(O)[CH]1C[CH](O)CN1; NMeNle = CCCC[CH](NC)C(=O)O; NMeA = CN[CH](C)C(=O)O; Pra = C#CC[C@H](N)C(=O)O; Aun = NCCCCCCCCCCC(=O)O; Dab = NCC[CH](N)C(=O)O; Dap = NC[CH](N)C(=O)O; Ava = NCCCCC(=O)O

T1 sequence (Q9NZQ7 with tags, fused parts or gaps): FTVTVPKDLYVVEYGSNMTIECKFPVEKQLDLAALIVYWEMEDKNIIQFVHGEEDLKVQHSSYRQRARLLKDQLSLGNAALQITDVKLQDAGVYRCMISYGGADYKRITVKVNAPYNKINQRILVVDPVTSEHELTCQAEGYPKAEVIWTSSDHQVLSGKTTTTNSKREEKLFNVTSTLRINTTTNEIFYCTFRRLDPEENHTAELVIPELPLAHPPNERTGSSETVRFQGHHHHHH

One assay addresses T1, PD-L1 (Homo sapiens, UniProt Q9NZQ7).
T1 construct: hPDL1(19-239)-TVMV-His; made in house; host or cells: HEK293T
The assay is described as follows: PD-1/PD-L1 Homogenous Time-Resolved Fluorescence (HTRF) binding assay (PD-1-Ig/PD-L1-His). The following applies: inhibition of PD-1-Ig binding to PD-L1-TVMV-His; value given as number; read-out: HTRF IC50. An excerpt:
The ability of the macrocyclic peptides of the present disclosure to bind to PD-L1 was investigated using a PD-1/PD-L1 Homogenous Time-Resolved Fluorescence (HTRF) binding assay.
Homogenous Time-Resolved Fluorescence (HTRF) Assays of Binding of Soluble PD-1 to Soluble PD-L1. Soluble PD-1 and soluble PD-L1 refers to proteins with carboxyl-end truncations that remove the transmembrane-spanning regions and are fused to heterologous sequences, specifically the Fc portion of the human immunoglobuling G sequence (Ig) or the hexahistidine epitope tag (His). All binding studies were performed in an HTRF assay buffer consisting of dPBS supplemented with 0.1% (w/v) bovine serum albumin and 0.05% (v/v) Tween-20. For the PD-1-Ig/PD-L1-His binding assay, inhibitors were pre-incubated with PD-L1-His (10 nM final) for 15 m in 4 μl of assay buffer, followed by addition of PD-1-Ig (20 nM final) in 1 μl of assay buffer and further incubation for 15m. PD-L1 fusion proteins from either human, cynomologous macaques, mouse, or other species were used. HTRF detection was achieved using europium crypate-labeled anti-Ig monoclonal antibody (1 nM final) and allophycocyanin (APC) labeled anti-His monoclonal antibody (20 nM final). Antibodies were diluted in HTRF detection buffer and 5 μl was dispensed on top of binding reaction. The reaction was allowed to equilibrate for 30 minutes and signal (665 nm/620 nm ratio) was obtained using an EnVision fluorometer. Additional binding assays were established between PD-1-Ig/PD-L2-His (20 and 5 nM, respectively), CD80-His/PD-L1-Ig (100 and 10 nM, respectively) and CD80-His/CTLA4-Ig (10 and 5 nM, respectively). Binding/competition studies between biotinylated Compound No. 71 and human PD-L1-His were performed as follows. Macrocyclic peptide inhibitors were pre-incubated with PD-L1-His (10 nM final) for 60 minutes in 4 μl of assay buffer followed by addition of biotinylated Compound No. 71 (0.5 nM final) in 1 μl of assay buffer. Binding was allowed to equilibrate for 30 minutes followed by addition of europium crypated labeled Streptavidin (2.5 pM final) and APC-labeled anti-His (20 nM final) in 5 μl of HTRF buffer. The reaction was allowed to equilibrate for 30m and signal (665 nm/620 nm ratio) was obtained using an EnVision fluorometer.
Recombinant Proteins. Carboxyl-truncated human PD-1 (amino acids 25-167) with a C-terminal human Ig epitope tag [hPD-1 (25-167)-3S-IG] and human PD-L1 (amino acids 18-239) with a C-terminal His epitope tag [hPD-L1(19-239)-tobacco vein mottling virus protease cleavage site (TVMV)-His] were expressed in HEK293T cells and purified sequentially by recombinant Protein A affinity chromatography and size exclusion chromatography. Human PD-L2-His (Sino Biologicals), CD80-His (Sino Biologicals), CTLA4-Ig (RnD Systems) were all obtained through commercial sources.
On to `CCCCC1C(=O)N(C)C(CCCC)C(=O)NC(CC(C)C)C(=O)NC(C(=O)NCC(=O)NCCCCCCCCCCCCCCCCC(=O)O)CSCC(=O)NC(Cc2ccc(O)cc2)C(=O)N(C)C(C)C(=O)NC(CC(N)=O)C(=O)N2CCCC2C(=O)NC(CN)C(=O)NC(CC(C)C)C(=O)N2CC(O)CC2C(=O)NC(Cc2c[nH]c3ccccc23)C(=O)NC(CCN)C(=O)NC(Cc2cn(CC(=O)O)c3ccccc23)C(=O)N1C` (centres unmarked) [Example 11188] ({CH2CO}-Y[NMeA]NP[Dap]L[Hyp]W[Dab][X26][NMeNle][NMeNle]LCG-{NH(CH2)16COOH}; thioether N-14; configuration not given here), for which the concentration for half-maximal inhibition (IC50) was determined as 0.28 µM.

The same assay, now with this note: inhibition of PD-1-Ig binding to PD-L1-TVMV-His; value given as range class; read-out: HTRF IC50.
Turning to `CCCC[C@H]1C(=O)N(C)[C@@H](CCCC)C(=O)N[C@@H](CCC(=O)O)C(=O)N[C@H](C(=O)NCC(=O)N[C@@H](Cc2cn(CC[C@H](NC(=O)CCCCCCCCCCCCCCC(=O)O)C(=O)O)nn2)C(N)=O)CSCC(=O)N[C@@H](Cc2ccc(O)cc2)C(=O)N(C)[C@@H](C)C(=O)N[C@@H](CC(N)=O)C(=O)N2CCC[C@H]2C(=O)N[C@@H](CN)C(=O)N[C@@H](CC(C)C)C(=O)N2C[C@H](O)C[C@H]2C(=O)N[C@@H](Cc2c[nH]c3ccccc23)C(=O)N[C@@H](CO)C(=O)N[C@@H](Cc2cn(CC(=O)O)c3ccccc23)C(=O)N1C` [Example 14070], the concentration for half-maximal inhibition (IC50) lay within 0.01 to 0.099 µM.
The same measure, in the same setting: next, `CCCC[C@H]1C(=O)N(C)[C@@H](CCCC)C(=O)N[C@@H](CCCNC(=N)N)C(=O)N[C@H](C(=O)NCC(=O)N[C@@H](Cc2cn(CC[C@H](NC(=O)CCCCCCCCCCCCCCC(=O)O)C(=O)O)nn2)C(N)=O)CSCC(=O)N[C@@H](Cc2ccc(O)cc2)C(=O)N(C)[C@@H](C)C(=O)N[C@@H](CC(N)=O)C(=O)N2CCC[C@H]2C(=O)N[C@@H](CN)C(=O)N[C@@H](CC(C)C)C(=O)N2C[C@H](O)C[C@H]2C(=O)N[C@@H](Cc2c[nH]c3ccccc23)C(=O)N[C@@H](CO)C(=O)N[C@@H](Cc2c[nH]c3ccccc23)C(=O)N1C` [Example 14066]: 0.0003 to 0.0099 µM; `CCCC[C@H]1C(=O)N(C)[C@@H](CCCC)C(=O)N[C@@H](CCC(=O)O)C(=O)N[C@H](C(=O)NCC(=O)N[C@@H](Cc2cn(CC[C@H](NC(=O)CCCCCCCCCCCCCCC(=O)O)C(=O)O)nn2)C(N)=O)CSCC(=O)N[C@@H](Cc2ccc(O)cc2)C(=O)N(C)[C@@H](C)C(=O)N[C@@H](CC(=O)O)C(=O)N2CCC[C@H]2C(=O)N[C@@H](Cc2c[nH]cn2)C(=O)N[C@@H](CCCCN)C(=O)N2C[C@H](O)C[C@H]2C(=O)N[C@@H](Cc2c[nH]c3ccccc23)C(=O)N[C@@H](CCCCN)C(=O)N[C@@H](Cc2cn(CC(=O)O)c3ccccc23)C(=O)N1C` [Example 14075]: 0.01 to 0.099 µM; `CCCC[C@H]1C(=O)N(C)[C@@H](CCCC)C(=O)N[C@@H](CC(C)C)C(=O)C[C@H](C(=O)NCC(=O)N[C@@H](CC(=O)O)C(=O)NC[C@H](NC(=O)CCCCCCCCCCCCCCCCC(=O)O)C(=O)O)CSCC(=O)N[C@@H](Cc2ccc(O)cc2)C(=O)N(C)[C@@H](C)C(=O)N[C@@H](CC(N)=O)C(=O)N2CCC[C@H]2C(=O)N[C@@H](CN)C(=O)N[C@@H](CC(C)C)C(=O)N2C[C@H](O)C[C@H]2C(=O)N[C@@H](Cc2c[nH]c3ccccc23)C(=O)N[C@@H](CCN)C(=O)N[C@@H](Cc2cn(CC(=O)O)c3ccccc23)C(=O)N1C` [Example 11185]: 0.01 to 0.099 µM.
In the case of `C#CC[C@H](NC(=O)CNC(=O)CNC(=O)CNC(=O)[C@@H]1CSCC(=O)N[C@@H](Cc2ccc(O)cc2)C(=O)N(C)[C@@H](C)C(=O)N[C@@H](CC(N)=O)C(=O)N2CCC[C@H]2C(=O)N[C@@H](CN)C(=O)N[C@@H](CC(C)C)C(=O)N2C[C@H](O)C[C@H]2C(=O)N[C@@H](Cc2c[nH]c3ccccc23)C(=O)N[C@@H](CCN)C(=O)N[C@@H](Cc2cn(CC(=O)O)c3ccccc23)C(=O)N(C)[C@@H](CCCC)C(=O)N(C)[C@@H](CCCC)C(=O)N[C@@H](CC(C)C)C(=O)N1)C(=O)O` [INT130AB] ({CH2CO}-Y[NMeA]NP[Dap]L[Hyp]W[Dab][Trp(1-CH2COOH)][NMeNle][NMeNle]LCGGG[Pra]-OH; thioether N-14), the IC50 lay in the range of 0.01 to 0.099 µM.
On the same count and under the same terms, next, `CCCC[C@H]1C(=O)N(C)[C@@H](CCCC)C(=O)N[C@@H](CC(C)C)C(=O)N[C@H](C(=O)NCC(=O)NCC(=O)NCCCCCCCCCCCCCCC(=O)O)CSCC(=O)N[C@@H](Cc2ccc(O)cc2)C(=O)N(C)[C@@H](C)C(=O)N[C@@H](CC(N)=O)C(=O)N2CCC[C@H]2C(=O)N[C@@H](CN)C(=O)N[C@@H](CC(C)C)C(=O)N2C[C@H](O)C[C@H]2C(=O)N[C@@H](Cc2c[nH]c3ccccc23)C(=O)N[C@@H](CCN)C(=O)N[C@@H](Cc2cn(CC(=O)O)c3ccccc23)C(=O)N1C` [Example 11194] ({CH2CO}-Y[NMeA]NP[Dap]L[Hyp]W[Dab][Trp(1-CH2COOH)][NMeNle][NMeNle]LCGG-{NH(CH2)14COOH}; thioether N-14): 0.01 to 0.099 µM; `CCCC[C@H]1C(=O)N(C)[C@@H](CCCC)C(=O)N[C@@H](CC(C)C)C(=O)N[C@H](C(=O)NCC(=O)NCC(=O)NCC(=O)NCCCCC(=O)O)CSCC(=O)N[C@@H](Cc2ccc(O)cc2)C(=O)N(C)[C@@H](C)C(=O)N[C@@H](CC(N)=O)C(=O)N2CCC[C@H]2C(=O)N[C@@H](CN)C(=O)N[C@@H](CC(C)C)C(=O)N2C[C@H](O)C[C@@H]2C(=O)N[C@@H](Cc2c[nH]c3ccccc23)C(=O)N[C@@H](CCN)C(=O)N[C@@H](Cc2cn(CC(=O)O)c3ccccc23)C(=O)N1C` [Example 11137] ({CH2CO}-Y[NMeA]NP[Dap]L[d(cisHyp)]W[Dab][Trp(1-CH2COOH)][NMeNle][NMeNle]LCGGG[Ava]-OH; thioether N-14): 0.01 to 0.099 µM.
Regarding `CCCCCCCCCCCCCCCC(=O)NCCCC[C@H](NC(=O)[C@@H]1CSCC(=O)N[C@@H](Cc2ccc(O)cc2)C(=O)N(C)[C@@H](C)C(=O)N[C@@H](CC(N)=O)C(=O)N2CCC[C@H]2C(=O)N[C@@H](CCN)C(=O)N[C@@H](CC(C)C)C(=O)N2C[C@H](O)C[C@H]2C(=O)N[C@@H](Cc2c[nH]c3ccccc23)C(=O)N[C@@H](CO)C(=O)N[C@@H](Cc2c[nH]c3ccccc23)C(=O)N(C)[C@@H](CCCC)C(=O)N(C)[C@@H](CCCC)C(=O)N[C@@H](CCCNC(=N)N)C(=O)N1)C(N)=O` [Example 11019] ({CH2CO}-Y[NMeA]NP[Dab]L[Hyp]WSW[NMeNle][NMeNle]RCK(Palmitoyl)-NH2; thioether N-14), the IC50 was 0.1 to 1.6 µM.
The same measure, in the same setting: for `CCCC[C@H]1C(=O)N(C)[C@@H](CCCC)C(=O)N[C@@H](CCCNC(=N)N)C(=O)N[C@H](C(=O)NCCCCCCCCCCC(N)=O)CSCC(=O)N[C@@H](Cc2ccc(O)cc2)C(=O)N(C)[C@@H](C)C(=O)N[C@@H](CC(=O)O)C(=O)N2CCC[C@H]2C(=O)N[C@@H](Cc2cnc[nH]2)C(=O)N[C@@H](CC(C)C)C(=O)N2C[C@H](O)C[C@H]2C(=O)N[C@@H](Cc2c[nH]c3ccccc23)C(=O)N[C@@H](CO)C(=O)N[C@@H](Cc2c[nH]c3ccccc23)C(=O)N1C` [Example 11064] ({CH2CO}-Y[NMeA]DPHL[Hyp]WSW[NMeNle][NMeNle]RC[Aun]-NH2; thioether N-14) the value was 0.0003 to 0.0099 µM; for `C#CC[C@H](NC(=O)CNC(=O)[C@@H]1CSCC(=O)N[C@@H](Cc2ccc(O)cc2)C(=O)N(C)[C@@H](C)C(=O)N[C@@H](CC(N)=O)C(=O)N2CCC[C@H]2C(=O)N[C@@H](CN)C(=O)N[C@@H](CC(C)C)C(=O)N2C[C@H](O)C[C@H]2C(=O)N[C@@H](Cc2c[nH]c3ccccc23)C(=O)N[C@@H](CCN)C(=O)N[C@@H](Cc2cn(CC(=O)O)c3ccccc23)C(=O)N(C)[C@@H](CCCC)C(=O)N(C)[C@@H](CCCC)C(=O)N[C@@H](CC(C)C)C(=O)N1)C(=O)N[C@@H](CCC(=O)NCCCOCCOCCOCCCNC(=O)CC[C@H](NC(=O)CCCCCCCCCCCCCCCCC(=O)O)C(=O)O)C(=O)O` [Example 11267] ({CH2CO}-Y[NMeA]NP[Dap]L[Hyp]W[Dab][Trp(1-CH2COOH)][NMeNle][NMeNle]LCG[Pra]E(X6)-OH; thioether N-14), 0.01 to 0.099 µM.
